Here are results for 4 molecules from article PMC10298926, “Biophysical Characterization of the Binding Mechanism between the MATH Domain of SPOP and Its Physiological Partners” (International Journal of Molecular Sciences, 2023).

Test [1] concerns the target T1, SPOP MATH WT (Homo sapiens, UniProt O43791). Description: Stopped-flow pseudo-first-order binding kinetics. Particulars: 298 K; for kon: stopped-flow, 2 µM MATH domain, dansylated peptide 2 to 10 µM (Puc, MacroH2A) or 2 to 40 µM (PTEN), 50 mM sodium-HEPES, pH 7.2 (for ionic strength series), five traces averaged, slope of kobs vs peptide. As for the experimental part:
(§1) To infer the mechanism of recognition of SPOP MATH, we resorted to performing time-resolved kinetic experiments. SPOP MATH was rapidly mixed with increasing concentrations of dansylated peptides (from 2 to 10 µM for Puc and MacroH2A, and from 2 to 40 µM for PTEN) in a stopped-flow apparatus at 298 K. The binding traces obtained by monitoring the time-resolved fluorescence were satisfactorily fitted to a single exponential equation, allowing calculating the observed rate constants kobs at different peptide concentrations. We then plotted the kobs values over the concentration of dansylated peptide and fitted the data to a simple linear function equation: kobs=kon Peptide+koff where kobs is the observed rate constant; kon and koff are the microscopic association and dissociation rate constants, respectively (Figure 2). The slope and y-axis intercept represent the microscopic association and dissociation rate constant, respectively. To minimize the error associated with the indirect measurement of the dissociation rate constant, we carried out displacement experiments to determine the koff values. The displacement experiments were designed by mixing the preformed complex SPOP MATH-dansylated peptides with a high excess of nondansylated peptide, as described in the Section 4. […] On the basis of these observations, it is possible to conclude that, in the case of binding to MacroH2A and PTEN, there is the presence of an additional step, which escapes detection by stopped-flow experiments and is likely to be negligible in the case of Puc. […] We note that such a case closely resembles the presence of a so-called burst phase, which is frequently observed in protein-folding studies.
Binding kinetic experiments were performed on an Applied Photophysics DX-17MV stopped-flow apparatus (Applied Photophysics, Leatherhead, UK). Pseudo-first-order binding experiments were performed by mixing a constant concentration (2 μM) of MATH domain with increasing dansylated peptides concentrations, from 2 to 10 μM of Puc and MacroH2A, and 2 to 40 µM of PTEN. The samples were excited at 280 nm, and the emission fluorescence was recorded by using a bandpass 320 nm cutoff filter. The experiments were performed at 298 K. For ionic strength dependence with Puc and MacroH2A, the buffers used were 50 mM sodium-HEPES, pH 7.2, supplemented with 50 mM, 100 mM, 200 mM, or 500 mM of sodium chloride (NaCl). For the PTEN binding salt dependence experiments, lower concentrations of salt were added for the previous buffer list mentioned (10 mM, 25 mM, and 50 mM of sodium chloride). For each acquisition, five traces were collected, averaged, and satisfactorily fitted to a single exponential equation.

The target of test [2] is T1, SPOP MATH WT. Description: Stopped-flow displacement. The test is classed as binding. The settings on record: preincubated complex (both 8 µM) mixed with 50 μM nondansylated peptide, 298 K, average of five single traces. Here is the method:
as §1
Microscopic dissociation rate constants (koff) were directly measured by performing displacement experiments on an Applied Photophysics DX-17MV stopped-flow apparatus (Applied Photophysics). […] The samples were excited at 280 nm and fluorescence emission was collected by using a 330 ± 30 nm bandpass filter. […] The observed rate constants were calculated from the average of five single traces. […]
Target sequence in this assay (O43791 1-182): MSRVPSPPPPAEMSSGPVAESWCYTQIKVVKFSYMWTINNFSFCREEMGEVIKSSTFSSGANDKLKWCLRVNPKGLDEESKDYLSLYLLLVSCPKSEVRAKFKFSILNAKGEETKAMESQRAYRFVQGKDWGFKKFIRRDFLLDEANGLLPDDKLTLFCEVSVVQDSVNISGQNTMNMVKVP

Test [3] addresses T1, SPOP MATH WT. Nature of the test: Equilibrium binding, FRET (Trp to dansyl), fluorescence titration. The settings on record: read-out: Equilibrium KD; dansylated peptide 0 to 40 µM; constant SPOP MATH WT (2 µM in methods, 1 µM in results); excitation 280 nm, emission 300-400 nm; 298 K; hyperbolic fit. From the text: The MATH domain of SPOP exerts its functions by specifically recognizing different substrates and, therefore, acting as an adaptor module between SPOP and its physiological ligands. In an effort to provide a complete characterization of SPOP MATH binding mechanisms, we investigated the recognition of three peptides mimicking a specific region of the substrates Puc (region 96–105), MacroH2A (region 166–179), and PTEN (region 354–368). […] Moreover, the three-dimensional structure of SPOP MATH in complexes with each of the peptides has been previously reported (3HQH, 3HQL, and 4OV1 PDB entries, respectively). Similar to previous work on other protein–protein recognition modules, we employed peptides carrying a covalently attached N-terminal dansyl fluorophore. Binding was then followed by measuring the FRET (Forster resonance energy transfer) between the three tryptophan residues of the SPOP MATH domain (donor) and the dansyl group of the peptides (acceptor).
To address the equilibrium binding affinity of SPOP MATH and its substrates, a fixed concentration of the protein (1 µM) was challenged with increasing peptide concentrations. In all cases, the fluorescence-monitored transition returned a hyperbolic behavior as described in the Section 4, which allowed estimating a dissociation constant of 1.4 ± 0.4 µM, 1.6 ± 0.2 µM, and 5.5 ± 0.5 µM for Puc, MacroH2A, and PTEN, respectively (Figure 2). These values appear partly consistent with what was previously reported by Zhuang et al. by using surface plasmon resonance. […]
Equilibrium binding experiments were performed on a Fluoromax-4 single-photon-counting spectrofluorometer (Jobin-Yvon, Newark, NJ, USA). The SPOP MATH domain was excited at 280 nm and emission spectra were recorded between 300 and 400 nm, at increasing dansylated peptide concentrations. […]

Test [4] deals with engineered MATH domain of SPOP (Speckle-type POZ protein), residues 1-182, cysteine residues substituted to serine (UniProt O43791). Nature of the test: stopped-flow fluorescence binding kinetics; pseudo-first-order; 2 µM MATH mixed with dansylated peptide, 2 to 10 µM Puc and MacroH2A, 2 to 40 µM PTEN; excitation 280 nm; 298 K; kobs against peptide concentration fitted to a line, kon from the slope.

Test [5] shares this target. Description: other fluorescence titration; equilibrium; FRET from the tryptophans of SPOP MATH (excited at 280 nm, emission 300-400 nm) to the dansyl of the peptide; MATH at constant concentration (2 µM in the methods, 1 µM in the results), dansylated peptide 0 to 40 µM; 298 K; hyperbolic fit.
Test [6] shares this target. Nature of the test: stopped-flow fluorescence displacement; preincubated complex of MATH domain and dansylated peptide (both 8 µM) mixed with an excess of nondansylated peptide (50 µM); 298 K; same buffer as the binding experiments; single exponential decay gives koff.
Test [7] has the same target. Description: stopped-flow fluorescence binding kinetics + other: stopped-flow fluorescence displacement; KD calculated by combining kon of the pseudo-first-order plots with koff of the displacement experiments; 298 K.

Where a SMILES comes first, the peptide text is derived from it. Where no end group is shown, it is not given here. The star is where a group is joined. Dansyl = CN(C)c1cccc2c(S(=O)(=O)*)cccc12

As to `C[C@H](NC(=O)[C@H](C)NC(=O)[C@H](CCCCN)NS(=O)(=O)c1cccc2c(N(C)C)cccc12)C(=O)N[C@@H](CO)C(=O)N[C@@H](C)C(=O)N[C@@H](CC(=O)O)C(=O)N[C@@H](CO)C(=O)N[C@H](C(=O)N[C@H](C(=O)N[C@@H](CCC(=O)O)C(=O)NCC(=O)N[C@H](C(=O)N1CCC[C@H]1C(=O)N[C@@H](C)C(=O)N[C@@H](CC(=O)O)C(=O)O)[C@@H](C)O)[C@@H](C)O)[C@@H](C)O` [MacroH2A] (HELM PEPTIDE1{[CN(C)c1cccc2c(S(=O)(=O)[*:2])cccc12].K.A.A.S.A.D.S.T.T.E.G.T.P.A.D}$$$$V2.0), the kon (as a rule, the rate constant with which the complex forms) at SPOP MATH WT [1] was determined as 3e+06 ± 2e+06 M⁻¹ s⁻¹. For the same molecule, the dissociation rate constant (koff) (in general, the rate constant with which the complex falls apart) on SPOP MATH WT [2] came out at 21 ± 2 s⁻¹. Besides, the Kd (commonly a measure of binding affinity in units of concentration) on SPOP MATH WT [3] was determined as 1.6 ± 0.2 µM.
Turning to `CC(C)[C@H](NC(=O)[C@H](CO)NC(=O)[C@@H](NC(=O)[C@H](CO)NC(=O)[C@H](CO)NC(=O)[C@H](CO)NC(=O)[C@H](C)NC(=O)[C@H](CCC(=O)O)NC(=O)[C@@H]1CCCN1C(=O)[C@H](CC(N)=O)NC(=O)[C@H](CO)NC(=O)[C@@H]1CCCN1S(=O)(=O)c1cccc2c(N(C)C)cccc12)[C@@H](C)O)C(=O)N[C@H](C(=O)N1CCC[C@H]1C(=O)N[C@@H](CC(=O)O)C(=O)O)[C@@H](C)O` [PTEN] (HELM PEPTIDE1{[CN(C)c1cccc2c(S(=O)(=O)[*:2])cccc12].P.S.N.P.E.A.S.S.S.T.S.V.T.P.D}$$$$V2.0), the Kd amounted to 20.8 ± 0.4 µM on SPOP MATH WT [1] (read-out: Kinetics KD, WT, from kon (pseudo-first-order) and koff (displacement)); 4 ± 1 µM on SPOP MATH WT [3]. Also, at SPOP MATH WT [1], the kon came out at 5.5e+06 ± 500000 M⁻¹ s⁻¹. The off-rate constant (koff) on SPOP MATH WT [2] was found to be 113 ± 1 s⁻¹.
In the case of Dansyl-PSNPEASSSTSVTPD [dansylated peptide mimicking PTEN (region 354-368)], in test [4], the kon came to 5.5e+06 M⁻¹ s⁻¹. This molecule gave a Kd in test [5] of 5.5 µM. In test [6], this molecule displayed a koff of 113 s⁻¹.
Consider Dansyl-KAASADSTTEGTPAD [dansylated peptide mimicking MacroH2A (region 166-179)], for which the kon in test [4] is 3e+06 M⁻¹ s⁻¹. Besides, in test [6], the koff turned out to be 21 s⁻¹. In addition, the Kd in test [7] is 7.8 µM.
